The record followed here is ChEMBL document CHEMBL3813656, “Allosteric Glutaminase Inhibitors Based on a 1,4-Di(5-amino-1,3,4-thiadiazol-2-yl)butane Scaffold” (ACS Med Chem Lett, 2016).

Series [1] deals with T1, Glutaminase kidney isoform, mitochondrial (Homo sapiens, UniProt O94925).
T1 sequence (O94925 whole entry): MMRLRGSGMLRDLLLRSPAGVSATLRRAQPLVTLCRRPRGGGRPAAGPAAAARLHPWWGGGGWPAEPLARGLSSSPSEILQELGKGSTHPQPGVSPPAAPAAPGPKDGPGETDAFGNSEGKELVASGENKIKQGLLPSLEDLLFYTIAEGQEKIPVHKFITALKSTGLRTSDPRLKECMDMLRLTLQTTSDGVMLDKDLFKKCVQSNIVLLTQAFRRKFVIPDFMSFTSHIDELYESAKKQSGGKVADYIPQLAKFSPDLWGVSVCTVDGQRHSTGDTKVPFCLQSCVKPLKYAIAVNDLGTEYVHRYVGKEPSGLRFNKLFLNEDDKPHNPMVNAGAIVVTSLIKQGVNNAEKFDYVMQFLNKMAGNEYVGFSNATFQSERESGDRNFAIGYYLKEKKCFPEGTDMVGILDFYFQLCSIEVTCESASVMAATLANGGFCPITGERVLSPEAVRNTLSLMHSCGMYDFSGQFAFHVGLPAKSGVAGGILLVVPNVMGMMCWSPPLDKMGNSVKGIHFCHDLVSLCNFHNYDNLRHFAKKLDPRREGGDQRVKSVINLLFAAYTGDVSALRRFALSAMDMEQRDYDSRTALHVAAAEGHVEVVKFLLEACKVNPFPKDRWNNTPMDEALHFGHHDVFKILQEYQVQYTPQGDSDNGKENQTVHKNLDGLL
Nature of the series: Inhibition of human kidney type glutaminase (124 to 669 residues) using L-[3H]-glutamine as substrate after 45 mins by topcount method.

Series [2] is described as follows: Aqueous solubility of the compound in PBS buffer at pH 7.4 at 37 degC after 24 hrs by LC/MS analysis. As to conditions: pH 7.4, 24 h. It counts as physicochemical.
Series [3] concerns the target T2, Glutaminase kidney isoform, mitochondrial (Homo sapiens) (UniProt O94925).
T2 sequence (whole entry): T1 sequence (O94925 whole entry)
Description: Time-dependent inhibition of human kidney type glutaminase (124 to 669 residues) using L-[3H]-glutamine as substrate by topcount method

In brackets after ≈: the same amount, converted by molar mass. Activity calls are given as the source filed them. The rule behind the calls is not given here.

What is called IC50 is the concentration at which inhibition is half-maximal. Read a high IC50 as weaker potency. On to `CC(=O)Oc1ccc(CC(=O)Nc2nnc(CCCCc3nnc(NC(=O)Cc4cccnc4)s3)s2)cc1`, for which the IC50 in series [1] came to 120 nM.

As to `CC(=O)Oc1ccc(CC(=O)Nc2nnc(CCCCc3nnc(NC(=O)Cc4cccc(OC(F)(F)F)c4)s3)s2)cc1`, in series [1], the IC50 was found to be 2000 nM.

In the case of `O=C(Cc1ccccc1)Nc1nnc(CCCCc2nnc(NC(=O)Cc3ccc(Br)cn3)s2)s1`, in series [1], the IC50 was determined as 170 nM.

On to `O=C(Cc1ccccc1)Nc1nnc(CCCCc2nnc(NC(=O)Cc3ccc(OCc4ccccc4)cc3)s2)s1`, for which, in series [1], the IC50 was more than 25000 nM.

`O=C(Cc1ccccc1)Nc1nnc(CCCCc2nnc(NC(=O)Cc3ccccn3)s2)s1`: in series [1], the IC50 was found to be 70 nM.

On to `O=C(Cc1ccccc1)Nc1nnc(CCCCc2nnc(NC(=O)Cc3cccc(O)c3)s2)s1`, for which it took 120 nM to reach half-maximal inhibition in series [1] (IC50).

`Nc1ccc(CC(=O)Nc2nnc(CCCCc3nnc(NC(=O)Cc4ccccc4)s3)s2)cc1`: in series [1], the midpoint of inhibition, the IC50, lay at 2300 nM.

Consider `O=C(Cc1ccc(O)cc1)Nc1nnc(CCCCc2nnc(NC(=O)Cc3ccc(O)cc3)s2)s1`, for which, in series [1], the midpoint of inhibition, the IC50, lay at 120 nM.

What is called solubility is how much of the substance goes into solution per volume. A high value points to much dissolved substance. As to `O=C(Cc1ccccc1)Nc1nnc(CCCCc2nnc(NC(=O)Cc3ccc(O)cc3)s2)s1`, in series [1], the half-inhibitory concentration (IC50) is 70 nM. For the same compound, the solubility in series [2] was 17 µg/mL (≈ 33.4 µM). Also, the TDI entry in series [3] is “inactive”.

`O=C(Cc1ccccc1)Nc1nnc(CCCCc2nnc(NC(=O)Cc3ccc(C(=O)O)cc3)s2)s1` showed an IC50 in series [1] of 110 nM.

For the compound `CC(=O)Oc1ccc(CC(=O)Nc2nnc(CCCCc3nnc(NC(=O)Cc4ccc(OC(C)=O)cc4)s3)s2)cc1`, 1200 nM corresponded to half-maximal inhibition in series [1] (IC50).

Take `CC(=O)Oc1ccc(CC(=O)Nc2nnc(CCCCc3nnc(NC(=O)Cc4ccccc4)s3)s2)cc1`: the concentration for half-maximal inhibition (IC50) in series [1] amounted to 540 nM.

In series [1], `O=C(Cc1ccc(O)cc1)Nc1nnc(CCCCc2nnc(NC(=O)Cc3cccnc3)s2)s1` yielded a half-inhibitory concentration (IC50) of 140 nM.

Regarding `O=C(Cc1ccccc1)Nc1nnc(CCCCc2nnc(NC(=O)Cc3cccnc3)s2)s1`, half-maximal inhibition in series [1] (IC50) was put at 70 nM.

For the compound `CN(C)c1ccc(CC(=O)Nc2nnc(CCCCc3nnc(NC(=O)Cc4ccccc4)s3)s2)cc1`, in series [1], the IC50 came to 3000 nM.

Consider `CC(C)(C)OC(=O)Nc1ccc(CC(=O)Nc2nnc(CCCCc3nnc(NC(=O)Cc4ccccc4)s3)s2)cc1`, for which the half-inhibitory concentration (IC50) in series [1] worked out at 450 nM.

Consider `O=C(Cc1ccc(O)cc1)Nc1nnc(CCCCc2nnc(NC(=O)Cc3cccc(OC(F)(F)F)c3)s2)s1`, for which, in series [1], the concentration for half-maximal inhibition (IC50) worked out at 510 nM.

Compound `COc1ccc(CC(=O)Nc2nnc(CCCCc3nnc(NC(=O)Cc4ccccc4)s3)s2)cc1` returned a half-inhibitory concentration (IC50) in series [1] of 210 nM.

In series [1], `O=C(Cc1ccccc1)Nc1nnc(CCCCc2nnc(NC(=O)Cc3ccc(Oc4ccccc4)cc3)s2)s1` showed an IC50 of 380 nM.

Take `COC(=O)c1ccc(CC(=O)Nc2nnc(CCCCc3nnc(NC(=O)Cc4ccccc4)s3)s2)cc1`: the IC50 in series [1] was 13000 nM.
